Experimental data from patent US6294649A, “Method of cell inhibition using polypeptides derived from the venom of the Austrialian jumper ant Myrmecia pilosula” (Northern Sydney Area Health Service, priority 1996, dated 2001).
Where two headings read alike, the source gives them in different places. No end group written: not given here.

Key:
[1] = test system: Red blood cells; test: Red blood cell lysis; assay type: cell-based; settings: 1% (v/v) red blood cells in PBS; peptides 0.3125-80 μM
Experimental: Red blood cells were prepared from fresh whole blood. Red blood cells were diluted to 1% (v/v) with PBS and 0.1 mL aliquots added to a 96 well microtitre plate. Venom and venom peptides were added in 5 μL of normal saline. Whole ant venom concentration (final): 80, 40, 20, 10, 5, 2.5, 1.25, 0.625, 0.3125 4μg/mL. Venom peptide concentration (final): 80, 40, 20, 10, 5, 2.5, 1.25, 0.625, 0.3125 μM.

[2] = test system: EBV-transformed B-cells; test: Flow cytometry cell viability (propidium iodide exclusion); assay type: cell-based, human; settings: 5 μM, treated for 5 minutes; untreated control about 15% permeable
Experimental: (§1) Cell proliferation and flow cytometry have been used to determine the cytotoxic effects on cells. Cell proliferation involves growing cells to log-phase growth and adding Pilosulin 1 at different final peptide concentrations and ^3 H-methyl thymidine at the same time. The cells are incubated at 37° C. for 16 hours, harvested, lysed and washed and the cells liquid scintillation counted. Flow cytometry employs the exclusion of propidium iodide from cells as an index of their viability. In experiments where fluorescent labelled monoclonal antibodies recognising cell specific markers were used, exclusion of 7-actinomycin D was used as the index of cell viability. In these latter experiments cells were incubated with the fluorescent antibodies and then washed to remove unbound antibodies. The treated cells were stored on ice and Pilosulin 1 added 5 minutes prior to flow cytometric measurement.
Flow cytometry can measure cell viability by their ability to exclude a fluorescent dye such as propidium iodide or 7-actinomycin D. EBV-transformed B-cells were cultured to log-phase growth and venom and venom peptides added. […] Cells were treated for 5 minutes with Pilosulin 1, Pilosulin 2 and melittin over a concentration range of 0.1 to 10 μM and then cell numbers were measured in the flow cytometer.

[3] = test system: Antibody-labelled (CD3-FITC) white blood cells (T-cell); test: Kinetics of cell killing at different temperatures (7-AAD, flow cytometry); assay type: cell-based; settings: 3 μM melittin
Experimental: The kinetics of Pilosulin 1 and melittin cell killing at different temperatures were investigated. Antibody-labelled (CD3-FITC) white blood cells were incubated with 7-AAD (4 μg/mL) and either 1.5 μM Pilosulin 1 or 3 μM melittin. Three tubes were prepared for each peptide and the tubes were incubated at either 0° C. (circles), room temperature (triangles), or 37° C. (diamonds). Samples of each tube were analysed on a flow cytometer at time zero and thereafter at 2, 5 10 and 15 minutes.

[4] = test system: Epstein Barr-transformed human B-cells; test: Cell proliferation (3H-methyl-thymidine); assay type: cell-based
Experimental: as §1
Epstein Barr-transformed human B-cells grown to log phase. One hundred […] of cells (10^5 cells) were placed in the wells of microtitre plates. Venom and venom peptides added to the wells in […] to give final concentrations used in the red cell lysis experiment. One μCi of ^3 H-methyl-thymidine was added to the wells and the plates incubated overnight at 37° C. Cells harvested 17 hr later and counted.

[5] = test system: granulocyte population; test: Relative cytotoxicity for leucocyte components, flow cytometry (7-actinomycin D uptake); assay type: cell-based
Experimental: as §1
The relative cytotoxicity of Pilosulin 1 for the different components of the leucocyte population was studied and the results are shown in FIG. 3.

[6] = test system: solid tumour cell lines including a breast cancer, a brain tumour and a kidney cell tumour line; test: Cytotoxicity for solid tumour cell lines; assay type: cell-based
Experimental: as §1

[7] = test system: normal blood cells, in particular, lymphocytes monocytes and natural killer cells; test: Cytotoxicity for normal blood cells; assay type: cell-based
Experimental: as §1

[8] = test system: cancer cells of myeloid and lymphoid origin; test: Cytotoxicity towards cancer cells; assay type: cell-based; settings: in particular rapidly dividing cancer cells of myeloid and lymphoid origin
[9] = test system: cells; test: Cytotoxicity to cells (cell proliferation and flow cytometry); assay type: cell-based; settings: cells tested
Experimental: as §1

CC[C@H](C)[C@H](NC(=O)CN)C(=O)NCC(=O)N[C@@H](C)C(=O)N[C@H](C(=O)N[C@@H](CC(C)C)C(=O)N[C@@H](CCCCN)C(=O)N[C@H](C(=O)N[C@@H](CC(C)C)C(=O)N[C@H](C(=O)N[C@H](C(=O)NCC(=O)N[C@@H](CC(C)C)C(=O)N1CCC[C@H]1C(=O)N[C@@H](C)C(=O)N[C@@H](CC(C)C)C(=O)N[C@H](C(=O)N[C@@H](CO)C(=O)N[C@@H](Cc1c[nH]c2ccccc12)C(=O)N[C@H](C(=O)N[C@@H](CCCCN)C(=O)N[C@@H](CCCNC(=N)N)C(=O)N[C@@H](CCCCN)C(=O)N[C@@H](CCCNC(=N)N)C(=O)N[C@@H](CCC(N)=O)C(=O)N[C@@H](CCC(N)=O)C(N)=O)[C@@H](C)CC)[C@@H](C)CC)[C@@H](C)O)[C@@H](C)O)C(C)C)C(C)C [Melittin]
efficiency on a molar basis in the lysis of red blood cells [1]: most efficient
% Viable Cells [2]: 53.5%
cells killed ([3]; 0° C., 10 minutes): 25%
cells killed ([3]; 37° C., 2 minutes): all cells were killed
cells killed ([3]; room temperature, 2 minutes): 85%
cells killed ([3]; room temperature, 5 minutes): killed all cells

GLGSVFGRLARILGRVIPKVAKKLGPKVAKVLPKVMKEAIPMAVEMAKSQEEQQPQ [Pilosulin 1]
cytotoxicity for proliferating Epstein-Barr Virus transformed B-cells [4]: cytotoxic
effectiveness as a cytotoxin at 50% cell viability (relative) ([4]; 3H-methyl-thymidine, overnight at 37° C., comparator not named): approximately 4 times
cytotoxicity for granulocytes [5]: resistant
cytotoxicity for solid tumour cell lines [6]: cytotoxic
cytotoxicity for normal blood cells [7]: low
cytotoxicity for normal blood cells ([7]; listed as Pilostilin 1): cytotoxic
cytotoxicity towards cancer cells [8]: potent cytotoxicity

KLGPKVAKVLPKVMKEAIPMAVEMAKSQEEQQPQ [peptide 2]
cytotoxicity to cells [9]: no detectable cytotoxicity
